According to paper PMC11758220, “Identification of a Privileged Scaffold for Inhibition of Sterol Transport Proteins through the Synthesis and Ring Distortion of Diverse, Pseudo-Natural Products” (ACS Central Science, 2025):

Tests used:
Assay type in all cases: binding
Details in all cases: single dose, Dose = 10 µM
ORP1 = target: T1, ORP1 (Homo sapiens, UniProt Q9BXW6); assay: Fluorescence polarisation (FP) competition with NBD-cholesterol, ORP1
T1 construct: ORP1(534-950); host or cells: E. coli BL21(DE3)
T1 sequence (Q9BXW6 534-950): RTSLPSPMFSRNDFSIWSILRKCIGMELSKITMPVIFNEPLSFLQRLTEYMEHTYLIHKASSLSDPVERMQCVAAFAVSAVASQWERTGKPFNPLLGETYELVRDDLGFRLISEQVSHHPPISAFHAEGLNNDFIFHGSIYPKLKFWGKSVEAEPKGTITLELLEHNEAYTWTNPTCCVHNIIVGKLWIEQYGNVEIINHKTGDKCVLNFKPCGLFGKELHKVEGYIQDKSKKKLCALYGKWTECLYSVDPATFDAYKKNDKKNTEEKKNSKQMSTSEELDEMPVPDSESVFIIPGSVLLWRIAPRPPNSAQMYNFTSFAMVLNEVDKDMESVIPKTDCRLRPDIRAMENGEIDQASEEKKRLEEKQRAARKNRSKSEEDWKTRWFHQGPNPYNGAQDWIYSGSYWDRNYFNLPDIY
Description: (§1) Protein expression constructs
(§2) Human ASTER domains of Aster-A(359-547), -B(364-552) and -C(318-504) were subcloned into a pGEX-6p-2rbs vector, thus introducing the cloning artifact ‘GPLGS’.3 The pGEX-6P-1-GST-OSBP(377- […]
(§3) a gift from James H. Hurley (University of California).4 The pHIS_2His6_Thrombin_STARD4(2-205;C75S) plasmid was a gift from Young Jun Im (Chonnam National University).5 STARD5A was a gift from Nicola Burgess-Brown (Addgene plasmid #42392; http://n2t.net/addgene:42392; […]
(§4) Protein expression and purification […]
(§5) vectors including an N-terminal PreScission-cleavable glutathione S-transferase (GST)-tag were expressed in Escherichia coli (E. coli) OverExpress C41 in Terrific Broth (TB) medium for 16 h at 18 °C after the induction with 0.1 mM isopropyl β-D-1-thiogalactopyranoside (IPTG). Cells were harvested at 3500 × g for 15 minutes and lysed by sonication in buffer containing 50 mM HEPES pH 7.5, 300 mM NaCl, 10 %v/v glycerol, 5 mM dithiothreitol (DTT), 0.1 %v/v Triton X-100 and protease inhibitor mix HP plus (Serva). The lysate was purified by affinity chromatography on a GSTrap FF column (Cytiva) using an ÄKTA Start (Cytiva) in buffer containing 50 mM HEPES pH 7.5, 300 mM NaCl, 10 %v/v glycerol, 5 mM DTT and 0.01 %v/v Triton X-100. The GST-tag was cleaved overnight on the column at 4 °C. The Aster sterol binding domains were further purified by size-exclusion chromatography (SEC) on a HiLoad 16/600 Superdex 75 pg (Cytiva) in buffer containing 20 mM HEPES pH 7.5, 300 mM NaCl, 10 %v/v […]
(§6) STARD5(6-213) harboring an N-terminal His6-Tag were expressed in E. coli BL21(DE3) in Luria-Bertani Broth (LB) medium for approximately 16 h at 18 °C after induction with 0.15 mM IPTG. Cells were harvested at 3500 × g for 15 minutes and lysed by sonication in buffer containing 50 mM HEPES pH 7.5, 150 mM NaCl, 5 %v/v glycerol, 5 mM DTT, 0.1 %v/v Triton X -100 and ethylenediaminetetraacetic acid (EDTA)-free protease inhibitor cocktail (Sigma-Aldrich). The cleared lysate was purified by affinity chromatography on a Ni-NTA Superflow Cartridge (Qiagen) using an ÄKTA Start (Cytiva) in buffer containing 50 mM HEPES pH 7.5, 150 mM NaCl, 5 %v/v glycerol, 5 mM DTT. START domains were eluted by using elution buffer containing 50 mM HEPES pH 7.5, 150 mM NaCl, 5 %v/v glycerol, 5 mM DTT and 500 mM imidazole. Proteins were further purified by SEC on a HiLoad 16/600 Superdex 75 pg (Cytiva) in buffer containing 20 mM HEPES pH 7.5, 150 mM NaCl, 5 %v/v glycerol and 2 mM DTT.
(§7) The ORP domain of human OSBP(377-807) in the pGEX-6p-1 vector with an N-terminal PreScission-cleavable GST-tag was expressed in E. coli OverExpress C41 in LB medium for 16 h at 18 °C after induction with 0.1 mM IPTG. Cells were harvested at 3500 × g for 15 minutes and lysed by sonication in buffer containing 20 mM HEPES pH 7.5, 300 mM NaCl, 10 %v/v glycerol, 5 mM DTT, 0.1 %v/v Triton X-100 and EDTA-free protease inhibitor cocktail (Sigma-Aldrich). The cleared lysate was purified by affinity chromatography on a GSTrap HF column (Cytiva) using an ÄKTA Start (Cytiva) in buffer containing 20 mM HEPES pH 7.5, 300 mM NaCl, 10 %v/v glycerol, 5 mM DTT. OSBP(377 -807) was eluted by using elution buffer containing 20 mM HEPES pH 7.5, 300 mM NaCl, 10 %v/v glycerol, 5 mM DTT and 10 mM reduced glutathione. Proteins were further purified by SEC on a HiLoad 16/600 Superdex 75 pg (Cytiva) using an ÄKTA Explorer (Cytiva) in buffer containing 20 mM HEPES pH 7.5, 150 mM NaCl, 10 %v/v glycerol and 2 mM DTT.
(§8) The ORP domains of human ORP1(534-950) in pET24b(+) and ORP2(49-480) in the pET24b(+) vector including an N-terminal His6-Tag were expressed in E. coli BL21(DE3) in TB medium for approximately 16 h at 18 °C after induction with 0.1 mM IPTG. Cells were collected at 3500 × g for 15 minutes and lysed by sonification in buffer containing 10 mM Tris-HCl pH 8, 300 mM NaCl, 5 % glycerol, 2 mM DTT, 0.1 % Triton X-100 and EDTA-free protease inhibitor cocktail (Sigma-Aldrich). The cleared […]

STARD1 = target: T2, STARD1 (Homo sapiens, UniProt P49675); assay: Fluorescence polarisation (FP) competition with NBD-cholesterol, STARD1
T2 construct: STARD1(66-284); made in house; host or cells: E. coli BL21(DE3)
T2 sequence (P49675 66-284): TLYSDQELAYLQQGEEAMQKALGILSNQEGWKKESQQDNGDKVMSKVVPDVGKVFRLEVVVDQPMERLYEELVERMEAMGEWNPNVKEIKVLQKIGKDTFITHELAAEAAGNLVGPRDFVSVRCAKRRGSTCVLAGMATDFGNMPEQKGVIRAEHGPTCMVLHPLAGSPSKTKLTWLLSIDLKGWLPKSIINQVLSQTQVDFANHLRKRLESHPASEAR

Aster-C = target: T3, Aster-C (Homo sapiens, UniProt Q8IYS0); assay: Fluorescence polarisation (FP) competition with NBD-cholesterol, Aster-C
T3 construct: -C(318-504); GST (PreScission-cleavable) (N, cleaved yes); made in house; host or cells: E. coli OverExpress C41
Description: as §1, §2, §3, §4, §5, §6, §7, §8

T3 sequence (Q8IYS0 318-504): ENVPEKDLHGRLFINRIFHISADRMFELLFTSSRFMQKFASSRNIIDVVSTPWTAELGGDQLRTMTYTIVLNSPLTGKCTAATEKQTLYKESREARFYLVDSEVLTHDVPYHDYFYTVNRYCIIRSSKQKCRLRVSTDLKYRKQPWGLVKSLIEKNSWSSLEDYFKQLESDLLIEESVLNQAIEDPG

Compound	ORP1 (FP) inhibition (ORP1)	STARD1 (FP) inhibition (STARD1)	Aster-C (FP) inhibition (Aster-C)	inhibition at 10 µM (ORP1)	inhibition at 10 µM (STARD1)	inhibition at 10 µM (Aster-C)
Cc1nc2c(s1)CC[C@@H]1C[C@H](O)CC[C@]21C [Compound 8b]	-2.5%	8%	-1.6%	–	–	–
C[C@]12CC[C@@H](O)C[C@H]1CCc1sc(-c3cccnc3)nc12 [Compound 8c]	5.8%	-1.67%	0%	–	–	–
COc1ccc(-c2nc3c(s2)CC[C@@H]2C[C@H](O)CC[C@]32C)cc1 [Compound 8d]	–	–	–	66.7%	42%	0.8%
C[C@]12CC[C@@H](O)C[C@H]1CCc1sc(-c3ccc(F)cc3)nc12 [Compound 8e]	31.7%	17%	-2.4%	–	–	–
C[C@]12CC[C@@H](O)C[C@H]1CCc1[nH]c(-c3ccccc3)nc12 [Compound 9]	–	–	–	-0.8%	10%	-3.2%
C[C@]12CC[C@@H](O)C[C@H]1CCc1c2[nH]c2ccccc12 [Compound 10a]	28.3%	35%	0.8%	–	–	–
C[C@]12CC[C@@H](O)C[C@H]1CCc1c2[nH]c2ccc(Br)cc12 [Compound 10b]	21.7%	-23%	-5%	–	–	–
C[C@]12CC[C@@H](O)C[C@H]1CCc1c2[nH]c2ccc(Cl)cc12 [Compound 10c]	24.2%	-12%	-8%	–	–	–
C[C@]12CC[C@@H](O)C[C@H]1CCc1c2[nH]c2ccc(F)cc12 [Compound 10d]	28.3%	90%	-3.2%	–	–	–
Cc1ccc2[nH]c3c(c2c1)CC[C@@H]1C[C@H](O)CC[C@]31C [Compound 10e]	–	–	–	27.5%	-3.33%	1.6%
COc1ccc2[nH]c3c(c2c1)CC[C@@H]1C[C@H](O)CC[C@]31C [Compound 10f]	–	–	–	11.7%	-1.67%	0%
CC12CCC(O)CC1CCc1c2[nH]c2ccc(C(F)(F)F)cc12 (stereo not drawn) [Compound 10g]	–	–	–	39.2%	-35%	-5%
C[C@]12CC[C@@H](O)C[C@H]1CCc1c2[nH]c2ccc(I)cc12 [Compound 10h]	35.8%	15%	24%	–	–	–
C[C@]12CC[C@@H](O)C[C@H]1CCc1c2[nH]c2c(F)cc(Cl)cc12 [Compound 10i]	–	–	–	14.2%	-13%	-1.6%
